Source: patent publication EP0181109B1, “N6-benzopyrano- and benzothiopyrano-adenosines” (WARNER-LAMBERT COMPANY, priority 1984, dated 1986)

What was measured:
[1] = target: T1, adenosine A1 receptor (Rattus norvegicus, UniProt P25099); assay: Adenosine Receptor Binding - A1 Receptor Affinity (RBA 1), [3H]-CHA displacement; details: rat whole brain membranes, 1.0 nM [3H]-CHA, one hour at 25°C
T1 construct: Whole brain minus cerebellum and brainstem from male Long Evans rats (150-200 g) was homogenized; from tissue; host or cells: rat whole brain minus cerebellum and brainstem (membrane homogenate)
T1 sequence (P25099 1-326): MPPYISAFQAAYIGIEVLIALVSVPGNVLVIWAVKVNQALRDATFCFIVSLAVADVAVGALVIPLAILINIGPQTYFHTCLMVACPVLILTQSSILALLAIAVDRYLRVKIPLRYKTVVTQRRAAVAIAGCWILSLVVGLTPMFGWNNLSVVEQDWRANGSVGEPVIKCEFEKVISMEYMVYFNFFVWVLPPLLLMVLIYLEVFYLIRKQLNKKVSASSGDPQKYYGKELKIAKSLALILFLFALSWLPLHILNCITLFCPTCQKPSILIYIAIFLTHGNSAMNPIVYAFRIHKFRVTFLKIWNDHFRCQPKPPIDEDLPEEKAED
Experimental: Whole brain minus cerebellum and brainstem from male Long Evans rats (150-200 g) was homogenized in 30 volumes of ice-cold 0.05 M Tris-HCI buffer pH 7.7 using a Brinkman Polytron PT-10, (setting number 6 for 20 seconds) and centrifuged for ten minutes at 20,000 x g (Sorvall RC-2), 4°C. The supernatant was discarded, and the pellet was resuspended and centrifuged as before. The pellet was resuspended in 20 ml Tris-HCI buffer containing two International Units/ml of adenosine deaminase (Sigma Type III from calf intestinal mucosa), incubated at 37°C for 30 minutes, then subsequently at 0°C for ten minutes. The homogenate was again centrifuged, and the final pellet was resuspended in ice-cold 0.05 M Tris-HCI buffer pH 7.7 to a concentration of 20 mg/ml original wet tissue weight and used immediately.
Tissue homogenate (10 mg/ml) was incubated in 0.05 M Tris-HCI buffer pH 7.7 containing 1.0 nM [^3H]-N^6-cyclohexyladenosine (^3H]-CHA) with or without test agents in triplicate for one hour at 25°C. Incubation volume was 2 ml. Unbound [^3H]-CHA was separated by rapid filtration under reduced pressure through Whatman glass fiber (GF/B) filters. The filters were rinsed three times with 5 ml of ice cold 0.05 M Tris-HCI buffer pH 7.7. The radio-labele ligand retained on the filter was measured by liquid scintillation spectrophotometry after shaking the filters for one hour or longer on a mechanical shaker in 10 ml of Beckman Ready-Solv HP scintillation cocktail.
Nonspecific binding was defined as the binding which occurred in the presence of 1 mM theophylline. The concentration of test agent which inhibited 50% of the specific binding (IC50) was determined by nonlinear computer curve fit. The Scatchard plot was calculated by linear regression of the line obtained by plotting the amount of radioligand bound (pmoles/gram of tissue) versus
• bound radioligand • free radioligand Since the amount of radioligand bound was a small fraction of the total amount added, free radioligand was defined as the concentration (nM) of radioligand added to the incubation mixture. The Hill coefficient was calculated by linear regression of the line obtained by plotting the log of the bound radioligand vs the log of the • bound radioligand • Bmax - bound radioligand • The maximal number of binding sites (Bmax) was calculated from the Scatchard plot.

[2] = test system: conscious rat; assay: Antihypertensive evaluation (AHP3): direct monitoring of aortic blood pressure and heart rate from conscious rats; assay type: in vivo
Experimental: This test procedure is described in the following paragraphs.
The continuous monitoring of pulsatile blood pressure (BP) from unrestrained conscious rats surgically equipped with polyethylene cannulas was accomplished by means of a computer assisted data capture scheme (CADCS). The basic elements of the methodology are the cannulation procedure and the CADCS.
Cannulation Procedure: Rats were anesthetized with Telazol (1:1 tiletamine HCI and zolazepam HCI); 20-40 mg/kg IM and the descending aorta exposed via a midline incision. Cannulas fabricated from polyethylene tubing were inserted into the aorta via an undersized puncture hole below the renal arteries. The puncture hole was made by a 23 G disposable needle with a section of the aorta clamped off above and below the puncture site. The cannulas, consisting of a PE100 (0.86 mm ID) body and a PE50 (0.58 mm ID) tip, were attached to a trocar, inserted through the psoas muscle, and passed subcutaneously along the midline of the back and externalized between the ears. The cannulas were anchored to the psoas muscle and between the scalulae (3-0 green braided suture). The midline incision was closed in two steps (muscle first, skin second) using continuous over-and over sutures (4-0 chronic). Each rat was then given penicillin 30,000 units subcutaneously (Penicillin G Procaine Sterile Suspension).
The rats were fitted with a harness-spring-swivel assembly designed to protect the cannula and to provide the rat relative freedom of movement. The harnesses were fabricated from nylon hook and loop tape cemented to a metal plate to which spring wires (18-8 stainless steel), were attached to brass swivels. Each polyethylene cannula was channeled through a spring and connected through a swivel to a pressure transducer (Model P23Gb; Statham Instruments; Hato Rey, Puerto Rico) and an infusion pump (Sage model 234-7; Orion Research, Cambridge, MA) by means of PE100 tubing. While on test, each rat received a continuous slow infusion of heparinized saline solution (approximately 400 I or 40 units of heparin per 24 hour period) to prevent clot formation. Additional "flushes" of the cannula with heparinized saline were carried out when the aortic pulse pressure (systolic minus diastolic) was less than 25 mm Hg.
CADCS: The pulsatile blood pressure and heart rate of each of 32 rats was monitored every minute by means of two in-laboratory microcomputers communicating directly with a data concentrator computer. The data were first stored on the data concentrator disk and the transferred to a magnetic tape for analysis and report generation by the main research computer. The overall scheme involved modulating the primary signal from the pressure transducer, generating the primary data set of the one-minute values for systolic, diastolic, and mean blood pressures and heart rate by the in-lab microcomputer and the storage, analysis, and report generation by the main research computer.
The transducers were connected to analog signal conditioning modules. The modules provided a regulated excitation voltage for the transducers, amplification as required to interface the microprocessors and an active low pass filter to compensate for the pressure wave form distortion produced by the fexible, fluid filled, narrow cannula. The distortion was 22-26 Hz and this provided a reliable estimate of both systolic and diastolic blood pressure.
The microcomputers (one for each of the two groups of 16 rats) were connected to the input components through the module interface units, an analog-to-digital converter for the pressure wave form signal and the digital inputs for the dose and event marker switches. The microcomputer controlled the sequential acquisition of data from the modular interface units through an internal synchronous time-of- day clock/time base generator. […]

[3] = 10 mg/kg, Hour 5, conscious rat
[4] = 10 mg/kg, Hour 3, conscious rat

| IC50 [1] | SMILES | further results |
| --- | --- | --- |
| 45 nM | C[C@H]1Oc2ccccc2C[C@@H]1Nc1ncnc2c1ncn2[C@@H]1O[C@H](CO)[C@@H](O)[C@H]1O (relative stereo) [Example 8, N^l-[trans-2-Methyl,-3-chromanylamino]adenosine] |  |
| 88 nM | OC[C@H]1O[C@@H](n2cnc3c(NC4CCOc5ccccc54)ncnc32)[C@H](O)[C@@H]1O (stereo partly drawn) [Example 1] |  |
| 14.2 nM | COc1ccc2c(c1)OCC(Nc1ncnc3c1ncn3[C@@H]1O[C@H](CO)[C@@H](O)[C@H]1O)C2 (stereo partly drawn) [Example 3] |  |
| 20 nM | OC[C@H]1O[C@@H](n2cnc3c(NC4COc5ccccc5C4)ncnc32)[C@H](O)[C@@H]1O (stereo partly drawn) [Example 4, N^6-[3-Chromanylamino]adenosine] |  |
| 17 nM | OC[C@H]1O[C@@H](n2cnc3c(NC4COc5c(Cl)cccc5C4)ncnc32)[C@H](O)[C@@H]1O (stereo partly drawn) [Example 5] | HR change [2, 3]: 0% |
| 4.9 nM | COc1ccc2c(c1)CC(Nc1ncnc3c1ncn3[C@@H]1O[C@H](CO)[C@@H](O)[C@H]1O)CO2 (stereo partly drawn) [Example 6] |  |
| 7.8 nM | CC1Oc2ccccc2CC1Nc1ncnc2c1ncn2C1OC(CO)C(O)C1O (stereo not drawn) [Example 7, N^6-[cis-2-Methyl-3-chromanylamino]adenosine] |  |
| 8.1 nM | Cc1cc2c(cc1C)OCC(Nc1ncnc3c1ncn3[C@@H]1O[C@H](CO)[C@@H](O)[C@H]1O)C2 (stereo partly drawn) [Example 9, N^6-[6,7-Dimethyl-3-chromanylamino]adenosine] | HR change ([2]; 10 mg/kg, Hour 7, conscious rat): 0% |
| 27 nM | Cc1ccc2c(c1C)OCC(Nc1ncnc3c1ncn3[C@@H]1O[C@H](CO)[C@@H](O)[C@H]1O)C2 (stereo partly drawn) [Example 10, N^6-[7,8-Dimethyl-3-chromanylamino]adenosine] | HR change ([2]; 3 mg/kg, Hour 5, conscious rat): 0% |
| 32 nM | Cc1ccc2c(c1C)OC(C)C(Nc1ncnc3c1ncn3[C@@H]1O[C@H](CO)[C@@H](O)[C@H]1O)C2 (stereo partly drawn) [Example 11] | HR change [2, 4]: 0%; HR change [2, 3]: 0% |
| 160 nM | CC(C)(C)c1ccc2c(c1)OCC(Nc1ncnc3c1ncn3[C@@H]1O[C@H](CO)[C@@H](O)[C@H]1O)C2 (stereo partly drawn) [Example 13, N^6-[7-t-Butyl-3-chromanylamino)adenosine] |  |
| 4930 nM | COc1cc(OC)c2c(c1)OC(C)(C)CC2Nc1ncnc2c1ncn2[C@@H]1O[C@H](CO)[C@@H](O)[C@H]1O (stereo partly drawn) [Example 14] | MAP change [2, 4]: 0% |
| 56.2 nM | OC[C@H]1O[C@@H](n2cnc3c(NC4CCSc5ccccc54)ncnc32)[C@H](O)[C@@H]1O (stereo partly drawn) [Example 15] |  |
| 622 nM | O=S1(=O)CCC(Nc2ncnc3c2ncn3[C@@H]2O[C@H](CO)[C@@H](O)[C@H]2O)c2ccccc21 (stereo partly drawn) [Example 16, N^6-[4-Benzothiopyran-1,1-dioxideamino]adenosine] |  |

| SMILES | IC50 [1] | further results |
| --- | --- | --- |
| OC[C@H]1O[C@@H](n2cnc3c(NC4CSc5ccccc5C4)ncnc32)[C@H](O)[C@@H]1O (stereo partly drawn) [Example 2] | 6.33 nM |  |
